Measurements as given in patent US12065443B2, “Compounds and pharmaceutical compositions thereof for the treatment of diseases” (priority 2017, dated 2024).
Read-outs that look alike come from different tables or passages of the source.

Assays:
SIK1 [1] = molecular target: T1, SIK1 (Homo sapiens, UniProt P57059); assay: biochemical; details: ADP-Glo SIK kinase assay
T1 construct: purchased Carna Biosciences 02-131
Description: (§1) The ADP-Glo™ kinase assay is a luminescent technology assay which measures the ADP formed from a kinase reaction. […] In a second step the kinase reactions are terminated and all the remaining ATP is depleted. In a final step the ADP is converted into ATP and this newly synthesized ATP is measured by using a luciferase/luciferin reaction. The generated light is measured using an Envision plate reader, wherein the luminescent signal obtained positively correlates with the kinase activity.
(§2) 1% DMSO and 10 μM staurosporine final concentrations are used as negative and positive controls.
(§3) 2 μL enzyme-substrate mixture is added to the assay plates.
(§4) The reaction is started by adding 2 μL diluted ATP on the assay plates. Plates are centrifuged for a few seconds at 1000 rpm and gently shaken for 2 min followed by an incubation at RT for 120 min.
(§5) The reactions are stopped and the unconsumed ATP is depleted by adding 5 μL ADP-Glo Reagent (Promega, Cat #V912B) to the reaction. The plates are centrifuged for a few seconds at 1000 rpm and incubated at RT for 40 min (ATP depletion).
(§6) The ADP is converted to ATP and luciferase and luciferin is introduced to detect ATP by adding 10 μL Kinase Detection Reagent (Promega, Cat #V913B+V914B) to the reaction. The plates are centrifuged for a few seconds at 1000 rpm and incubated at RT for 30 min (ADP detection).
(§7) Luminescence is measured on an Envision plate reader (PerkinElmer Inc.).

SIK2 [2] = molecular target: T2, SIK2 (Homo sapiens, UniProt Q9H0K1); assay: biochemical; details: ADP-Glo SIK kinase assay
T2 construct: purchased ThermoFisher Scientific PV4792
Description: as §1, §2, §3, §4, §5, §6, §7

SIK3 [3] = molecular target: T3, SIK3 (Homo sapiens, UniProt Q9Y2K2); assay: biochemical; details: ADP-Glo SIK kinase assay
T3 construct: purchased SignalChem S12-11G-100
Description: as §1, §2, §3, §4, §5, §6, §7

[4] = system: LPS-induced TNFα secretion in monocyte-derived macrophages (MdM); assay: MdM assay: LPS-triggered TNFα (ELISA); type: cell-based, human; details: Homo sapiens, Macrophage, LPS-triggered TNFα inhibition
In short: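 TNFα ELISA read on supernatants harvested 20 h after LPS (final 200 ng/mL) stimulation. Cells were day-10 macrophages derived from human blood CD14+ monocytes, exposed to 3-fold compound dilutions for 1 h at 37 °C beforehand, with DMSO held at 0.2%.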

[5] = system: LPS triggered IL-10 secretion in monocyte-derived macrophages (MdM); assay: MdM assay: LPS-triggered IL-10 (ELISA); type: cell-based, human; details: maximal fold change vs LPS only, median across assays
In short: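 Readout is IL-10FCmax, the median across at least two runs of the highest fold change over LPS-only, from ELISA absorbance at 450 nm of 2 h supernatants. Macrophages came from day-10 cultures of human CD14+ monocytes, were given compound for 1 h at 37° C in 0.2% DMSO, then 200 ng/mL LPS.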

SIK1 [6] = molecular target: T1, SIK1; assay: biochemical; details: 33P radioactive SIK kinase assay, AMARA peptide, 10 μM ATP; read-out: SIK1 IC50
In short: (§8)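 Radiometric assay: SIK1, SIK2 or SIK3 phosphorylates AMARA peptide using unlabelled plus [^33P]-γ-ATP, reaction started by ATP addition. Stopped with 150 mM phosphoric acid, filter-harvested and washed; incorporated ^33P counted by scintillation. Controls: 1% DMSO and 10 μM staurosporine final.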

SIK2 [7] = molecular target: T2, SIK2; assay: biochemical; details: 33P radioactive SIK kinase assay, AMARA peptide, 10 μM ATP
In short: as §8

SIK3 [8] = molecular target: T3, SIK3; assay: biochemical
In short: as §8

T1 sequence (P57059 whole entry): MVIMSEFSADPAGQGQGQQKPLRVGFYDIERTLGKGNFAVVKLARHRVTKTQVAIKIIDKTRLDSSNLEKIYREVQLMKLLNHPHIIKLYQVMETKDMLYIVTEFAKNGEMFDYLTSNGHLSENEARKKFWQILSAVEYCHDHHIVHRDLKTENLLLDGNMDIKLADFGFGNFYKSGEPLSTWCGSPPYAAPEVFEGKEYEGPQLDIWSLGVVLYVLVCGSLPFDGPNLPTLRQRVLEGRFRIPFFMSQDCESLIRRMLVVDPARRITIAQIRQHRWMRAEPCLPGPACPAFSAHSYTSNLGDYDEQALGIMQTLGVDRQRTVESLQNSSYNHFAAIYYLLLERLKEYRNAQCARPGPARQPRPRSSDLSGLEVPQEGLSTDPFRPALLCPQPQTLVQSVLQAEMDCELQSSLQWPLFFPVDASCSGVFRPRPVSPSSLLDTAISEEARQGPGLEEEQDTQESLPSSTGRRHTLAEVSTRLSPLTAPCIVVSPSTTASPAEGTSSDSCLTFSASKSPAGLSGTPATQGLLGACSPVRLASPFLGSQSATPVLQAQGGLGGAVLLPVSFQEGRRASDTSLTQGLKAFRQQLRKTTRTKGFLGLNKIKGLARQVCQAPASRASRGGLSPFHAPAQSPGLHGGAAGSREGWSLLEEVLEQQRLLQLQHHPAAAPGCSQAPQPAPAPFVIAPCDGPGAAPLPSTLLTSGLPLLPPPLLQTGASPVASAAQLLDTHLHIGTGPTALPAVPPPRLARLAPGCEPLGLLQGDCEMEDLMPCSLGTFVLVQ
T2 sequence (Q9H0K1 whole entry): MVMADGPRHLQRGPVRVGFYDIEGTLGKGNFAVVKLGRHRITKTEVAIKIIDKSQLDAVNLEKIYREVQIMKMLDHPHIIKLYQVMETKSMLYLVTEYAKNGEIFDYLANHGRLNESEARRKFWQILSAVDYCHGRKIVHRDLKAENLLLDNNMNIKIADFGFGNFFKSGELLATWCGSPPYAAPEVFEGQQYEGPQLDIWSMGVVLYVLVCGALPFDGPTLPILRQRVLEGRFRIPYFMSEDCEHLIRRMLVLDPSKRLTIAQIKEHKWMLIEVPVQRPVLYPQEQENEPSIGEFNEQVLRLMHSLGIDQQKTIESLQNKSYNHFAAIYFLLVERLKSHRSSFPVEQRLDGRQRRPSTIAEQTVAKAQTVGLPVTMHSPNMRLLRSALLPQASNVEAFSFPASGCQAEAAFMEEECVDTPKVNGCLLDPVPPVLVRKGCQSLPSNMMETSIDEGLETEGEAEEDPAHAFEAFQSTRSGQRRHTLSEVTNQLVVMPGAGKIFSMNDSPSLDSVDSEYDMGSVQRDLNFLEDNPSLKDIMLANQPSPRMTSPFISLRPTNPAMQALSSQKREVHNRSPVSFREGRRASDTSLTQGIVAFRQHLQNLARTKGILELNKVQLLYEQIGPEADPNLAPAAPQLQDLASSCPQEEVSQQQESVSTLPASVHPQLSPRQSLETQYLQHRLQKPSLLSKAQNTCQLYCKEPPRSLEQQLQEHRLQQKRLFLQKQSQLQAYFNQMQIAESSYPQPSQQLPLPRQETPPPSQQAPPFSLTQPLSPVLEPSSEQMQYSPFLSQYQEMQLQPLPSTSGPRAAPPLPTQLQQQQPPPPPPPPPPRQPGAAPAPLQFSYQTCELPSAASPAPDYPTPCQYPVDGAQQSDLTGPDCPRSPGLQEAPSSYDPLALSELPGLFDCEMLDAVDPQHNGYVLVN
T3 sequence (Q9Y2K2 whole entry): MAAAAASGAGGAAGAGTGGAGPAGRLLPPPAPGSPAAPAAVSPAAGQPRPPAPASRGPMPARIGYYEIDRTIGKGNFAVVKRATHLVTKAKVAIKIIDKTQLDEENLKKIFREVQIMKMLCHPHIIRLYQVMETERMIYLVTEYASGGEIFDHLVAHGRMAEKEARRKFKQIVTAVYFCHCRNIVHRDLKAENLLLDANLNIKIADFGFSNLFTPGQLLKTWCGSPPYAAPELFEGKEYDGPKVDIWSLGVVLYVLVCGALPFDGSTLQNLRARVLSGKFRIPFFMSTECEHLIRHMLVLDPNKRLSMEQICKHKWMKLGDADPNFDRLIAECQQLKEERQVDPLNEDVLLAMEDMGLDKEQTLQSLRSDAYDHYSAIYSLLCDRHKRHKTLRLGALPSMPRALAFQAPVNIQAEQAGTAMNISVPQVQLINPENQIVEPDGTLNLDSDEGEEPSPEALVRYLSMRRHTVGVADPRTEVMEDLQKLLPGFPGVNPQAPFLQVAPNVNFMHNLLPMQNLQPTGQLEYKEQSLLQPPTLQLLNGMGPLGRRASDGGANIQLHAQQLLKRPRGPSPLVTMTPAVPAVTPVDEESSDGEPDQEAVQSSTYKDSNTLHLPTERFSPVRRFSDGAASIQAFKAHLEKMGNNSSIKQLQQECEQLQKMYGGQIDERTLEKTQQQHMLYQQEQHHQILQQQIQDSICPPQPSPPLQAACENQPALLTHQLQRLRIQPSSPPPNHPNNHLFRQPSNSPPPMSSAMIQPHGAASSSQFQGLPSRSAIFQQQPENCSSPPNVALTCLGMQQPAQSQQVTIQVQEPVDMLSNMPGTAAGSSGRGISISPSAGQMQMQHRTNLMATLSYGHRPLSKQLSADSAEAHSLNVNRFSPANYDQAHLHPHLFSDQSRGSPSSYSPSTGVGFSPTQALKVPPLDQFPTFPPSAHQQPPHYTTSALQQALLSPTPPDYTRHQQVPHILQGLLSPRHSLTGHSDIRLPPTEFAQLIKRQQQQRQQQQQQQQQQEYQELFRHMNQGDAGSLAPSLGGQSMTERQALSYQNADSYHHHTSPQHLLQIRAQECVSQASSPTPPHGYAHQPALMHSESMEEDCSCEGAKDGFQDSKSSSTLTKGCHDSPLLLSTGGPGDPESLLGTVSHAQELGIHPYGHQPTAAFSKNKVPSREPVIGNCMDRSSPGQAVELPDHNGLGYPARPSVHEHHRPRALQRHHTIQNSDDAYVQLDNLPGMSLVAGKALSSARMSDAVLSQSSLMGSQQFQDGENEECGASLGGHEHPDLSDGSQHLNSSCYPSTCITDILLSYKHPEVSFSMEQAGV

Row | IC50 (SIK1 [1]) | IC50 (SIK2 [2]) | IC50 (SIK3 [3]) | EC50 [4] | IC50 (SIK1 [6]) | IC50 (SIK2 [7]) | IC50 (SIK3 [8]) | SMILES | IL-10 FCmax median [5]
1 | 10 to 100 nM | 0.01 to 10 nM | 0.01 to 10 nM | 0.1 to 100 nM | – | – | – | COc1cc(-c2cnc3cc(-c4ccc(C)nn4)ccn23)cc2c1C(=O)N(CC(F)(F)F)CC2 [Cpd 275, 8-methoxy-6-[7-(6-methylpyridazin-3-yl)imidazo[1,2-a]pyridin-3-yl]-2-(2,2,2-trifluoroethyl)-3,4-dihydroisoquinolin-1-one] | ++ (>1.5-4.5)
2 | 0.01 to 10 nM | 0.01 to 10 nM | 0.01 to 10 nM | 0.1 to 100 nM | – | – | – | CCOC(=O)C(C)Cn1cc(-c2ccn3c(-c4cc(OC)c(C(=O)NCC(F)(F)F)c(OC)c4)cnc3c2)cn1 (stereo not shown) [Cpd 293, ethyl 3-[4-[3-[3,5-dimethoxy-4-(2,2,2-trifluoroethyl-carbamoyl)phenyl]imidazo[1,2-a]pyridin-7-yl]pyrazol-1-yl]-2-methyl-propanoate] | ++ (>1.5-4.5)
3 | 0.01 to 10 nM | 0.01 to 10 nM | 0.01 to 10 nM | 0.1 to 100 nM | – | – | – | COc1ccc(-c2ccn3c(-c4cc(OC)c(C(=O)NC5CC5)c(OC(F)F)c4)cnc3c2)nn1 [compound 280, N-cyclopropyl-2-(difluoromethoxy)-6-methoxy-4-[7-(6-methoxypyridazin-3-yl)imidazo[1,2-a]pyridin-3-yl]benzamide] | ++ (>1.5-4.5)
4 | 0.01 to 10 nM | 0.01 to 10 nM | 0.01 to 10 nM | 0.1 to 100 nM | – | – | – | COc1cc(-c2cnc3cc(-c4cnn(C5CN(CC#N)C5)c4)ccn23)cc(OC)c1C(=O)NCC(F)(F)F [compound 265, 4-[7-[1-[1-(cyanomethyl)azetidin-3-yl]pyrazol-4-yl]imidazo[1,2-a]pyridin-3-yl]-2,6-dimethoxy-N-(2,2,2-trifluoroethyl)benzamide] | ++ (>1.5-4.5)
5 | 10 to 100 nM | 0.01 to 10 nM | 0.01 to 10 nM | 100 to 1000 nM | – | – | – | COc1cc(-c2cnc3cc(-c4cnnc(C)c4)ccn23)cc(OC(F)F)c1C(=O)NC1CC1 [compound 272, N-cyclopropyl-2-(difluoromethoxy)-6-methoxy-4-[7-(6-methylpyridazin-4-yl)imidazo[1,2-a]pyridin-3-yl]benzamide] | ++ (>1.5-4.5)
6 | 0.01 to 10 nM | 0.01 to 10 nM | 0.01 to 10 nM | 0.1 to 100 nM | – | – | – | COc1cc(-c2cnc3cc(-c4cnn(C5CN(CCC#N)C5)c4)ccn23)cc(OC)c1C(=O)NCC(F)(F)F [Cpd 264, 4-[7-[1-[1-(2-cyanoethyl)azetidin-3-yl]pyrazol-4-yl]imidazo[1,2-a]pyridin-3-yl]-2,6-dimethoxy-N-(2,2,2-trifluoroethyl)benzamide] | ++ (>1.5-4.5)
7 | 0.01 to 10 nM | 0.01 to 10 nM | 0.01 to 10 nM | 100 to 1000 nM | – | – | – | COc1cc(-c2cnc3cc(-c4cnn(C)c4)ccn23)cc(OCCO)c1C(=O)NC1CC1 [compound 279, N-cyclopropyl-2-(2-hydroxyethoxy)-6-methoxy-4-[7-(1-methylpyrazol-4-yl)imidazo[1,2-a]pyridin-3-yl]benzamide] | ++ (>1.5-4.5)
8 | 0.01 to 10 nM | 0.01 to 10 nM | 0.01 to 10 nM | 0.1 to 100 nM | 10 to 100 nM | 0.01 to 10 nM | 0.01 to 10 nM | COc1cc(-c2cnc3cc(-c4cnn(C)c4)ccn23)cc2c1C(=O)N(C1CC1)CC2 [compound 262, 2-cyclopropyl-8-methoxy-6-[7-(1-methylpyrazol-4-yl)imidazo[1,2-a]pyridin-3-yl]-3,4-dihydroisoquinolin-1-one] | –
9 | 0.01 to 10 nM | 0.01 to 10 nM | 0.01 to 10 nM | 0.1 to 100 nM | 10 to 100 nM | 0.01 to 10 nM | 0.01 to 10 nM | COc1cc(-c2cnc3cc(-c4cnn(C)c4)ccn23)cc2c1C(=O)N(CC(F)(F)F)C2 [compound 261, 7-methoxy-5-[7-(1-methylpyrazol-4-yl)imidazo[l,2-a]pyridin-3-yl]-2-(2,2,2-trifluoroethyl)isoindolin-1-one] | –
